What follows are sequences tested against HLA B*5101 (Homo sapiens, UniProt P01889, A329T/A93T/A95T/C349S/D138N/D201E/D98Y/E187L/E204Q/E69T/G107R/I218V/K202T/L105A/L119W/N104I/Q94N/R106L/R155S/R180L/S101N/S121T/S35A/S48A/V306I/V36M/Y195H/Y91F) (assay: not given). Details: not given.
Format: binding

PXXXXXXXX [3064.0013] and QXXXXXXXX [3064.0014] are the same in “Normalized average relative binding affinity (ARB), HLA B*5101” value: 0.037 for the first, 0.037 for the second.

First: RXXXXXXXX [3064.0015]
Second: SXXXXXXXX [3064.0016]
The “Normalized average relative binding affinity (ARB), HLA B*5101” value of the first is lower: 0.028 for the first, 0.051 for the second.

The sequences below were run against HLA B*5801 (Homo sapiens, UniProt P01889, A329T/C349S/D201E/D98Y/E176V/E187L/E204Q/E69T/G107R/I218V/I90N/K202T/L105A/L119I/N104I/N87E/Q89R/Q94S/R106L/R155S/R180L/R86G/S101N/S121R/S35A/S48A/T118I/V127L/V306I/V36M/Y140S/Y91M) (assay: not given). Details: not given.
Format: binding

Compared with PXXXXXXXX [3064.0013], QXXXXXXXX [3064.0014] is higher in “Normalized average relative binding affinity (ARB), HLA B*5801” value: 0.030 for the first, 0.17 for the second.

Compared with RXXXXXXXX [3064.0015], SXXXXXXXX [3064.0016] is lower in “Normalized average relative binding affinity (ARB), HLA B*5801” value: 0.79 for the first, 0.16 for the second.

The sequences below were run against HLA B*1503 (Homo sapiens, UniProt P01889, A329T/A93T/A95T/C349S/D201E/D98Y/E187L/E204Q/K202T/N87E/Q94N/R155S/R180L/S121R/S35A/V306I/V36M/Y140S/Y91S) (assay: biochemical). Details: not given.
Format: binding

First: PXXXXXXXX [3064.0013]
Second: QXXXXXXXX [3064.0014]
The “Normalized average relative binding affinity (ARB), HLA B*1503” value of the first is lower: 0.018 for the first, 0.074 for the second.

Compared with RXXXXXXXX [3064.0015], SXXXXXXXX [3064.0016] is lower in “Normalized average relative binding affinity (ARB), HLA B*1503” value: 0.56 for the first, 0.50 for the second.

Each sequence was assayed against HLA A*3201 (Homo sapiens, UniProt P04439, A270S/D101S/D185E/E176V/E277Q/F133L/G103R/G107R/G231S/H175R/I121M/I218V/I322F/K168Q/L105A/L300P/L318F/M331R/P208A/P217A/Q94H/R106L/R138Q/S129P/T104I/T323A/T345S/V100E/V321M/V358M) (assay: biochemical). Details: not given.
Format: binding

Compared with PXXXXXXXX [3064.0013], QXXXXXXXX [3064.0014] is higher in “Normalized average relative binding affinity (ARB), HLA A*3201” value: 0.055 for the first, 0.23 for the second.

Going from RXXXXXXXX [3064.0015] to SXXXXXXXX [3064.0016], the “Normalized average relative binding affinity (ARB), HLA A*3201” value falls from 0.97 to 0.39.

Each sequence was assayed against HLA B*5301 (Homo sapiens, UniProt P01889, A329T/A93T/A95T/C349S/D201E/D98Y/E176V/E187L/E204Q/E69T/G107R/I218V/K202T/L105A/L119I/N104I/Q94N/R106L/R155S/R180L/S101N/S121R/S35A/S48A/T118I/V127L/V306I/V36M/Y140S/Y91F) (assay: not given). Details: not given.
Format: binding

Compared with PXXXXXXXX [3064.0013], QXXXXXXXX [3064.0014] is higher in “Normalized average relative binding affinity (ARB), HLA B*5301” value: 0.0038 for the first, 0.021 for the second.

Going from RXXXXXXXX [3064.0015] to SXXXXXXXX [3064.0016], the “Normalized average relative binding affinity (ARB), HLA B*5301” value rises from 0.020 to 0.055.

What follows are sequences tested against HLA B*1501 (Homo sapiens, UniProt P01889, A329T/A93T/A95T/C349S/D201E/D98Y/E187L/E204Q/E69M/E70A/K202T/N87E/Q94N/R155S/R180W/S121R/S35A/S48A/V306I/V36M/Y140S/Y91S) (assay: biochemical). Details: not given.
Format: binding

First: PXXXXXXXX [3064.0013]
Second: QXXXXXXXX [3064.0014]
The “Normalized average relative binding affinity (ARB), HLA B*1501” value of the first is lower: 0.059 for the first, 0.25 for the second.

Compared with RXXXXXXXX [3064.0015], SXXXXXXXX [3064.0016] is lower in “Normalized average relative binding affinity (ARB), HLA B*1501” value: 0.67 for the first, 0.42 for the second.

The sequences below were run against HLA B*2705 (Homo sapiens, UniProt P01889, D138H/D201E/E176V/E204Q/G107R/H137Y/K202T/N104T/N87E/Q56L/Q94K/R106L/R155S/R180L/S101D/S121N/S48T/Y140D/Y33H/Y91C) (assay: not given). Details: positional scanning combinatorial 9-mer library; normalized to 1.0 for the best residue at each position.
Format: binding

First: PXXXXXXXX [3064.0013]
Second: QXXXXXXXX [3064.0014]
The “Normalized average relative binding affinity (ARB), HLA B*2705” value of the first is lower: 0.022 for the first, 0.067 for the second.

First: RXXXXXXXX [3064.0015]
Second: SXXXXXXXX [3064.0016]
The “Normalized average relative binding affinity (ARB), HLA B*2705” value of the first is higher: 1.0 for the first, 0.19 for the second.

The sequences below were run against HLA B*5401 (Homo sapiens, UniProt P01889, A329T/C349S/D138N/D201E/E176V/E187T/E204Q/E69G/I76V/K202T/L119W/R155S/R180L/S121T/S35A/S48A/V127L/V306I/V36M/Y140L) (assay: not given). Details: not given.
Format: binding

First: PXXXXXXXX [3064.0013]
Second: QXXXXXXXX [3064.0014]
The “Normalized average relative binding affinity (ARB), HLA B*5401” value of the first is lower: 0.0097 for the first, 0.031 for the second.

First: RXXXXXXXX [3064.0015]
Second: SXXXXXXXX [3064.0016]
The “Normalized average relative binding affinity (ARB), HLA B*5401” value of the first is lower: 0.027 for the first, 0.056 for the second.

The sequences below were run against HLA A*6802 (Homo sapiens, UniProt P04439, A269V/D140Y/D185E/E176V/E277Q/E87N/F33Y/G231S/I121R/I166T/I218V/L180W/L300P/L318F/N151K/P208A/P217A/Q86R/R138H/R169H/S129P/T345S/V36M) (assay: not given). Details: not given.
Format: binding

Going from PXXXXXXXX [3064.0013] to QXXXXXXXX [3064.0014], the “Normalized average relative binding affinity (ARB), HLA A*6802” value rises from 0.0050 to 0.039.

Going from RXXXXXXXX [3064.0015] to SXXXXXXXX [3064.0016], the “Normalized average relative binding affinity (ARB), HLA A*6802” value rises from 0.044 to 0.41.

What follows are sequences tested against H-2 K^k (Mus musculus, UniProt P04223) (assay: not given). Details: not given.
Format: binding

Chain of H-2 K^k (P01887 21-119): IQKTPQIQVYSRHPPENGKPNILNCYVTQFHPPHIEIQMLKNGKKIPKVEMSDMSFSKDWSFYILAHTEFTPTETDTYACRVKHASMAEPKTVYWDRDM
Chain of H-2 K^k (P04223 22-369): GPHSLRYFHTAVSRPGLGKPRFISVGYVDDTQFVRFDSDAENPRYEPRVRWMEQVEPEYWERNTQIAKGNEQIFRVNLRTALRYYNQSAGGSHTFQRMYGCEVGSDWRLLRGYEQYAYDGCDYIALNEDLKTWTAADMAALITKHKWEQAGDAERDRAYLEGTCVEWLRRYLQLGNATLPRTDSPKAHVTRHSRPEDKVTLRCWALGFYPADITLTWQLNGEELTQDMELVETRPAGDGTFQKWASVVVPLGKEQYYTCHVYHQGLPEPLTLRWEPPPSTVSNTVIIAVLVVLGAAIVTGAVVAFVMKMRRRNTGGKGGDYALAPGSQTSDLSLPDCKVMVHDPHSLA

Going from PXXXXXXXX [3064.0013] to QXXXXXXXX [3064.0014], the “Normalized average relative binding affinity (ARB), H-2 Kk” value rises from 0.052 to 0.45.

First: RXXXXXXXX [3064.0015]
Second: SXXXXXXXX [3064.0016]
The “Normalized average relative binding affinity (ARB), H-2 Kk” value of the first is lower: 0.11 for the first, 0.54 for the second.

These sequences were tested against HLA A*0201 (Homo sapiens, UniProt P04439, D140Y/D185E/D98H/E176V/E277Q/G131W/G231S/I119V/I121R/I166T/I218V/L300P/L318F/N151K/N90K/P208A/P217A/Q86G/Q94H/R138H/R169H/T345S) (assay: not given). Details: positional scanning combinatorial 9-mer library; normalized to 1.0 for the best residue at each position.

Going from PXXXXXXXX [3064.0013] to QXXXXXXXX [3064.0014], the “Normalized average relative binding affinity (ARB), HLA A*0201” value rises from 0.0032 to 0.019.

First: RXXXXXXXX [3064.0015]
Second: SXXXXXXXX [3064.0016]
The “Normalized average relative binding affinity (ARB), HLA A*0201” value of the first is lower: 0.084 for the first, 0.10 for the second.

What follows are sequences tested against HLA B*3501 (Homo sapiens, UniProt P01889, A329T/A93T/A95T/C349S/D201E/D98Y/E176V/E187L/E204Q/E69T/I218V/K202T/L119I/Q94N/R155S/R180L/S121R/S35A/S48A/T118I/V127L/V306I/V36M/Y140S/Y91F) (assay: not given). Details: not given.
Format: binding

Going from PXXXXXXXX [3064.0013] to QXXXXXXXX [3064.0014], the “Normalized average relative binding affinity (ARB), HLA B*3501” value rises from 0.023 to 0.081.

Going from RXXXXXXXX [3064.0015] to SXXXXXXXX [3064.0016], the “Normalized average relative binding affinity (ARB), HLA B*3501” value rises from 0.045 to 0.10.

These sequences were tested against HLA B*0702 (Homo sapiens, UniProt P01889) (assay: not given). Details: positional scanning combinatorial 9-mer library; normalized to 1.0 for the best residue at each position.
Format: binding

Compared with PXXXXXXXX [3064.0013], QXXXXXXXX [3064.0014] is higher in “Normalized average relative binding affinity (ARB), HLA B*0702” value: 0.029 for the first, 0.065 for the second.

Compared with RXXXXXXXX [3064.0015], SXXXXXXXX [3064.0016] is lower in “Normalized average relative binding affinity (ARB), HLA B*0702” value: 1.0 for the first, 0.35 for the second.

These sequences were tested against HLA B*5802 (Homo sapiens, UniProt P01889, A329T/C349S/D201E/D98Y/E176V/E187L/E204Q/E69T/G107R/I218V/I90N/K202T/L105A/N104I/N87E/Q89R/Q94S/R106L/R155S/R180L/R86G/S101N/S121W/S35A/S48A/V127L/V306I/V36M/Y140S/Y91M) (assay: not given). Details: not given.
Format: binding

First: PXXXXXXXX [3064.0013]
Second: QXXXXXXXX [3064.0014]
The “Normalized average relative binding affinity (ARB), HLA B*5802” value of the first is higher: 0.059 for the first, 0.033 for the second.

First: RXXXXXXXX [3064.0015]
Second: SXXXXXXXX [3064.0016]
The “Normalized average relative binding affinity (ARB), HLA B*5802” value of the first is higher: 0.52 for the first, 0.097 for the second.

The sequences below were run against HLA B*0801 (Homo sapiens, UniProt P01889, A93T/A95T/D138N/E176V/E187T/K202T/Q94N/R180D/S35A/V36M/Y33D/Y91F) (assay: biochemical). Details: not given.
Format: binding

Compared with PXXXXXXXX [3064.0013], QXXXXXXXX [3064.0014] is higher in “Normalized average relative binding affinity (ARB), HLA B*0801” value: 0.012 for the first, 0.048 for the second.

Going from RXXXXXXXX [3064.0015] to SXXXXXXXX [3064.0016], the “Normalized average relative binding affinity (ARB), HLA B*0801” value rises from 0.19 to 1.0.

These sequences were tested against H-2 D^b (Mus musculus, UniProt P01899) (assay: not given). Details: not given.
Format: binding

Chain of H-2 D^b (P01887 21-119): as the sequence (P01887 21-119) above
Chain of H-2 D^b (P01899 25-362): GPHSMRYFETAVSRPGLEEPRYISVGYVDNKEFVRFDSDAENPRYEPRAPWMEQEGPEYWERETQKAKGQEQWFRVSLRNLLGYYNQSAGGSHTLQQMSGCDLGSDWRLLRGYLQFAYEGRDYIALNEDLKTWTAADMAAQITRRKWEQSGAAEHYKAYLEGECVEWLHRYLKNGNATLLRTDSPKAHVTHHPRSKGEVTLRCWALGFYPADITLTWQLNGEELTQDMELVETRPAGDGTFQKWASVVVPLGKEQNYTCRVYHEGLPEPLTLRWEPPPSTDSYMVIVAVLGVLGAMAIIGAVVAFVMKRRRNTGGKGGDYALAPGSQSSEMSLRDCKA

First: PXXXXXXXX [3064.0013]
Second: QXXXXXXXX [3064.0014]
The “Normalized average relative binding affinity (ARB), H-2 Db” value of the first is lower: 0.030 for the first, 0.060 for the second.

RXXXXXXXX [3064.0015] and SXXXXXXXX [3064.0016] are the same in “Normalized average relative binding affinity (ARB), H-2 Db” value: 0.12 for the first, 0.12 for the second.

The sequences below were run against HLA A*3001 (Homo sapiens, UniProt P04439, D140H/D185E/E176W/F33S/G80R/H175R/K168Q/R138E/R41S) (assay: biochemical). Details: not given.
Format: binding

First: PXXXXXXXX [3064.0013]
Second: QXXXXXXXX [3064.0014]
The “Normalized average relative binding affinity (ARB), HLA A*3001” value of the first is lower: 0.0059 for the first, 0.063 for the second.

Going from RXXXXXXXX [3064.0015] to SXXXXXXXX [3064.0016], the “Normalized average relative binding affinity (ARB), HLA A*3001” value falls from 1.0 to 0.32.

These sequences were tested against H-2 D^d (Mus musculus, UniProt P01900) (assay: not given). Details: not given.
Format: binding

Chain of H-2 D^d (P01900 whole entry, looked up): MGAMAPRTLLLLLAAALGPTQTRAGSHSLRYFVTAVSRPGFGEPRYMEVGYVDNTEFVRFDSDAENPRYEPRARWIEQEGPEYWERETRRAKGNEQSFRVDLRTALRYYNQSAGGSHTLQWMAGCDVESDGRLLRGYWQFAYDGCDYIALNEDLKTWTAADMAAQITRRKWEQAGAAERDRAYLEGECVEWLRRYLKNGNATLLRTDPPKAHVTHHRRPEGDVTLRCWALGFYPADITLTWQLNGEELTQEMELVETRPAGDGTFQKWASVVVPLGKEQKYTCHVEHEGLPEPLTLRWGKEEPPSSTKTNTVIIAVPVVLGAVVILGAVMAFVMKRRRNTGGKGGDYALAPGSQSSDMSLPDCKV

Compared with PXXXXXXXX [3064.0013], QXXXXXXXX [3064.0014] is higher in “Normalized average relative binding affinity (ARB), H-2 Dd” value: 0.095 for the first, 0.39 for the second.

Compared with RXXXXXXXX [3064.0015], SXXXXXXXX [3064.0016] is lower in “Normalized average relative binding affinity (ARB), H-2 Dd” value: 0.41 for the first, 0.24 for the second.
